The record followed here is patent publication US12544391B2, “CD73 inhibitors” (ORIC Pharmaceuticals, Inc., priority 2019, dated 2026).

This assay concerns the target T1, CD73 (Homo sapiens, UniProt P21589).
T1 sequence (P21589 27-549): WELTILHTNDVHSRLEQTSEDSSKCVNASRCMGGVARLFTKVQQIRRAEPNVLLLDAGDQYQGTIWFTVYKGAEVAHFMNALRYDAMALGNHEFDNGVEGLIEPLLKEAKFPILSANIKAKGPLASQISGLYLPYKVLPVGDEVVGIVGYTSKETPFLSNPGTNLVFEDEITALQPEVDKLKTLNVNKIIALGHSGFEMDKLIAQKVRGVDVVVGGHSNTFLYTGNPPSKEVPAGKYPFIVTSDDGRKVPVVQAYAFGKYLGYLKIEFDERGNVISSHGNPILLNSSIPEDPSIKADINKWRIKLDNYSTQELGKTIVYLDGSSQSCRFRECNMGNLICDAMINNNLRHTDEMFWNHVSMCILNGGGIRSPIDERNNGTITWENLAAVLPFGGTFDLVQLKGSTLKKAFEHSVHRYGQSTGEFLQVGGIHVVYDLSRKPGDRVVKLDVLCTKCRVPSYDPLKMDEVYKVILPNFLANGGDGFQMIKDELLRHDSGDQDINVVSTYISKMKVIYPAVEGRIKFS
As to the kind of experiment: CD73 biochemical assay, Malachite Green detection of AMP hydrolysis. The following applies: CD73 320 pM, AMP 15 μM, Malachite Green readout. The method, then: Assay Reaction Conditions
• Assay Volume: 70 μl • Reaction Volume: 50 μl • CD73: 0.3208 nM • AMP: 15 μM • Assay Buffer: 2 5 mM Tris-HCL, pH 7.4, 0.01% Brij-35, 0.01% BSA, 5 mM MgCl2 Assay Procedure:
A clear 384 well plate was used in this assay.
Made dose titration of testing compounds in assay buffer, 10 points ½ log titrations in duplicates starting at 100 μM. Total volume for each well was 25 μl, with CD73 then added to each well for a final concentration of 320 pM. The solution was then incubated at RT for 15 min. 25 μl of AMP was added to each well for a final concentration of 15 μM, and then incubated at rt for 10 min. 10 μl of Malachite Green Reagent A was then added and allowed to incubate at rt for 10 min. 10 μl of Malachite Green Reagent B was then added and allowed to incubate at rt for 45 min. The absorbance for each sample was read on an Envision plate reader using excitation filter: Cy5 […].
The ability of the compounds disclosed herein to inhibit CD73 activity was quantified and the respective IC50 values were determined. Table 2 provides the biochemical IC50 values of compounds disclosed herein.
One may read the IC50 as the point on the concentration scale where inhibition reaches its midpoint. Higher therefore signals a need for much substance. `COC[C@](COCC(=O)O)(OC[C@H]1O[C@@H](c2ccc3c(NC4CCCC4)nc(Cl)nn23)[C@H](O)[C@@H]1O)P(=O)(O)O` [Example 25, 2-((S)-2-(((2R,3S,4R,5S)-5-(2-chloro-4-(cyclopentylamino)pyrrolo[2,1-f][1,2,4]triazin-7-yl)-3,4-dihydroxytetrahydrofuran-2-yl)methoxy)-3-methoxy-2-phosphonopropoxy)acetic acid]: the IC50 was not above 0.5 nM.

With `CCOC(=O)COC[C@@](COC)(OC[C@H]1O[C@@H](c2ccc3c(NC4CCCC4)nc(Cl)nn23)[C@H](O)[C@@H]1O)P(=O)(O)O` [Example 26, ((S)-2-(((2R,3S,4R,5S)-5-(2-chloro-4-(cyclopentylamino)pyrrolo[2,1-f][1,2,4]triazin-7-yl)-3,4-dihydroxytetrahydrofuran-2-yl)methoxy)-1-(2-ethoxy-2-oxoethoxy)-3-methoxypropan-2-yl)phosphonic acid], the IC50 is not above 0.5 nM. In the case of `O=P(O)(O)C(CO)(CO)OC[C@H]1O[C@@H](c2ccc3c(NCc4ccccc4Cl)nc(Cl)nn23)[C@H](O)[C@@H]1O` [Example 27, (2-(((2R,3S,4R,5S)-5-(2-chloro-4-((2-chlorobenzyl)amino)pyrrolo[2,1-f][1,2,4]triazin-7-yl)-3,4-dihydroxytetrahydrofuran-2-yl)methoxy)-1,3-dihydroxypropan-2-yl)phosphonic acid], the IC50 was 1 to 100 nM. The molecule `O=P(O)(O)C(COCc1nnn[nH]1)(COCc1nnn[nH]1)OC[C@H]1O[C@@H](c2ccc3c(NC4CCCC4)nc(Cl)nn23)[C@H](O)[C@@H]1O` [Example 28, (1,3-bis((1H-tetrazol-5-yl)methoxy)-2-(((2R,3S,4R,5S)-5-(2-chloro-4-(cyclopentylamino)pyrrolo[2,1-f][1,2,4]triazin-7-yl)-3,4-dihydroxytetrahydrofuran-2-yl)methoxy)propan-2-yl)phosphonic acid] returned an IC50 not above 0.5 nM. Under `C[C@@]1(c2ccc3c(NC4CCCC4)nc(Cl)nn23)O[C@H](COC(CO)(COCc2nnn[nH]2)P(=O)(O)O)[C@@H](O)[C@H]1O` (stereo partly drawn) [Example 29, (1-((1H-tetrazol-5-yl)methoxy)-2-(((2R,3S,4R,5S)-5-(2-chloro-4-(cyclopentylamino)pyrrolo[2,1-f][1,2,4]triazin-7-yl)-3,4-dihydroxy-5-methyltetrahydrofuran-2-yl)methoxy)-3-hydroxypropan-2-yl)phosphonic acid] stands 100 to 1000 nM. Molecule `COCC(COC)(OC[C@H]1O[C@@H](c2ccc3c(NC4CCCC4)nc(Cl)nn23)[C@H](O)[C@@H]1O)P(=O)(O)O` [Example 30, (2-(((2R,3S,4R,5S)-5-(2-chloro-4-(cyclopentylamino)pyrrolo[2,1-f][1,2,4]triazin-7-yl)-3,4-dihydroxytetrahydrofuran-2-yl)methoxy)-1,3-dimethoxypropan-2-yl)phosphonic acid] yielded an IC50 not above 0.5 nM.

`COC[C@@](C)(OC[C@H]1O[C@@H](c2ccc3c(NC4CCCC4)nc(Cl)nn23)[C@H](O)[C@@H]1O)P(=O)(O)O` [Example 31, ((S)-2-(((2R,3S,4R,5S)-5-(2-chloro-4-(cyclopentylamino)pyrrolo[2,1-f][1,2,4]triazin-7-yl)-3,4-dihydroxytetrahydrofuran-2-yl)methoxy)-1-methoxypropan-2-yl)phosphonic acid] had an IC50 of 1 to 100 nM. In turn, `COC[C@](C)(OC[C@H]1O[C@@H](c2ccc3c(NC4CCCC4)nc(Cl)nn23)[C@H](O)[C@@H]1O)P(=O)(O)O` [Example 32, ((R)-2-(((2R,3S,4R,5S)-5-(2-chloro-4-(cyclopentylamino)pyrrolo[2,1-f][1,2,4]triazin-7-yl)-3,4-dihydroxytetrahydrofuran-2-yl)methoxy)-1-methoxypropan-2-yl)phosphonic acid] registered an IC50 not above 0.5 nM.

Consider `C[C@](CO)(OC[C@H]1O[C@@H](c2ccc3c(NC4CCCC4)nc(Cl)nn23)[C@H](O)[C@@H]1O)P(=O)(O)O` [Example 33, ((S)-2-(((2R,3S,4R,5S)-5-(2-chloro-4-(cyclopentylamino)pyrrolo[2,1-f][1,2,4]triazin-7-yl)-3,4-dihydroxytetrahydrofuran-2-yl)methoxy)-1-hydroxypropan-2-yl)phosphonic acid], for which the IC50 fell in the range of 1 to 100 nM. In the case of `C[C@@](CO)(OC[C@H]1O[C@@H](c2ccc3c(NC4CCCC4)nc(Cl)nn23)[C@H](O)[C@@H]1O)P(=O)(O)O` [Example 34, ((R)-2-(((2R,3S,4R,5S)-5-(2-chloro-4-(cyclopentylamino)pyrrolo[2,1-f][1,2,4]triazin-7-yl)-3,4-dihydroxytetrahydrofuran-2-yl)methoxy)-1-hydroxypropan-2-yl)phosphonic acid], the IC50 lay in the range of 0.5 to 1 nM. In the case of `O=P(O)(O)[C@](COCc1nn[nH]n1)(COCC1CC1)OC[C@H]1O[C@@H](c2ccc3c(NC4CCCC4)nc(Cl)nn23)[C@H](O)[C@@H]1O` [Example 35, ((S)-1-((2H-tetrazol-5-yl)methoxy)-2-(((2R,3S,4R,5S)-5-(2-chloro-4-(cyclopentylamino)pyrrolo[2,1-f][1,2,4]triazin-7-yl)-3,4-dihydroxytetrahydrofuran-2-yl)methoxy)-3-(cyclopropylmethoxy)propan-2-yl)phosphonic acid], the IC50 is not above 0.5 nM. Regarding `C[C@@]1(c2ccc3c(NC4CCCC4)nc(Cl)nn23)O[C@H](CO[C@@](CO)(COCc2nn[nH]n2)P(=O)(O)O)[C@@H](O)[C@H]1O` [Example 36, ((R)-1-((2H-tetrazol-5-yl)methoxy)-2-(((2R,3S,4R,5S)-5-(2-chloro-4-(cyclopentylamino)pyrrolo[2,1-f][1,2,4]triazin-7-yl)-3,4-dihydroxy-5-methyltetrahydrofuran-2-yl)methoxy)-3-hydroxypropan-2-yl)phosphonic acid], the IC50 was 100 to 1000 nM. On to `C[C@@]1(c2ccc3c(NC4CCCC4)nc(Cl)nn23)O[C@H](CO[C@](CO)(COCc2nn[nH]n2)P(=O)(O)O)[C@@H](O)[C@H]1O` [Example 37, ((S)-1-((2H-tetrazol-5-yl)methoxy)-2-(((2R,3S,4R,5S)-5-(2-chloro-4-(cyclopentylamino)pyrrolo[2,1-f][1,2,4]triazin-7-yl)-3,4-dihydroxy-5-methyltetrahydrofuran-2-yl)methoxy)-3-hydroxypropan-2-yl)phosphonic acid], for which the IC50 was in the range of 100 to 1000 nM. The molecule `O=P(O)(O)C(CO)(COCc1nnn[nH]1)OC[C@H]1O[C@@H](c2cnn3c(NC4CCCC4)cc(Cl)nc23)[C@H](O)[C@@H]1O` (stereo partly drawn) [Example 38] came in with an IC50 not above 0.5 nM. `O=P(O)(O)C(CO)(COCc1nnn[nH]1)OC[C@H]1O[C@@H](c2ccc3c(NCC4CCC4)nc(Cl)nn23)[C@H](O)[C@@H]1O` (stereo partly drawn) [Example 39, (1-((1H-tetrazol-5-yl)methoxy)-2-(((2R,3S,4R,5S)-5-(2-chloro-4-((cyclobutylmethyl)amino)pyrrolo[2,1-f][1,2,4]triazin-7-yl)-3,4-dihydroxytetrahydrofuran-2-yl)methoxy)-3-hydroxypropan-2-yl)phosphonic acid]: the IC50 is not above 0.5 nM. As for `O=P(O)(O)[C@](CO)(COCc1nn[nH]n1)OC[C@H]1O[C@@H](c2ccc3c(N[C@@H]4CCc5ccccc54)nc(Cl)nn23)[C@H](O)[C@@H]1O` [Example 40, ((R)-1-((2H-tetrazol-5-yl)methoxy)-2-(((2R,3S,4R,5S)-5-(2-chloro-4-(((R)-2,3-dihydro-1H-inden-l-yl)amino)pyrrolo[2,1-f][1,2,4]triazin-7-yl)-3,4-dihydroxytetrahydrofuran-2-yl)methoxy)-3-hydroxypropan-2-yl)phosphonic acid], the IC50 was not above 0.5 nM.

For the molecule `O=P(O)(O)[C@@](CO)(COCc1nn[nH]n1)OC[C@H]1O[C@@H](c2ccc3c(N[C@@H]4CCc5ccccc54)nc(Cl)nn23)[C@H](O)[C@@H]1O` [Example 41, ((S)-1-((2H-tetrazol-5-yl)methoxy)-2-(((2R,3S,4R,5S)-5-(2-chloro-4-(((R)-2,3-dihydro-1H-inden-l-yl)amino)pyrrolo[2,1-f][1,2,4]triazin-7-yl)-3,4-dihydroxytetrahydrofuran-2-yl)methoxy)-3-hydroxypropan-2-yl)phosphonic acid], the IC50 is not above 0.5 nM.

The molecule `COC[C@@](OC[C@H]1O[C@@H](c2ccc3c(NC4CCCC4)nc(Cl)nn23)[C@H](O)[C@@H]1O)(C(=O)O)P(=O)(O)O` [Example 42, (S)-2-(((2R,3 S,4R,5S)-5-(2-chloro-4-(cyclopentylamino)pyrrolo[2,1-f][1,2,4]triazin-7-yl)-3,4-dihydroxytetrahydrofuran-2-yl)methoxy)-3-methoxy-2-phosphonopropanoic acid] gave an IC50 not above 0.5 nM.
